Assay results taken from patent publication US9724408B2, “Compositions and methods for activating stimulator of interferon gene-dependent signalling” (ADURO BIOTECH, INC., priority 2013, dated 2017).

How the values were obtained:
[1] = tested on: snake venom phosphodiesterase (SVPD)
Nuclease P1 (NP1) = target: T1, Nuclease P1 (NP1) (Penicillium citrinum, UniProt P24289); assay: Resistance to Nuclease P1, read out in THP1-Blue ISG cells; details: 2.5 mU NP1, 2 hr at 37° C., then 50 μM on THP1-Blue ISG cells, FIG. 12
T1 sequence (P24289 1-270): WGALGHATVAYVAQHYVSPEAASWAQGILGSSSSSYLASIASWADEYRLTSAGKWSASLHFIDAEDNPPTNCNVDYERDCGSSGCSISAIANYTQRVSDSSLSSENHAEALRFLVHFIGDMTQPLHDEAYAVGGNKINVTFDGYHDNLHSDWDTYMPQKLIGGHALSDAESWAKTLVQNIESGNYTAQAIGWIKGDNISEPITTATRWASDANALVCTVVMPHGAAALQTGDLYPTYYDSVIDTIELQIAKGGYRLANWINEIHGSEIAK

hSTING (Q) = assay: IFNβ-LUC reporter in HEK293T cells expressing hSTING (Q); assay type: cell-based, human; details: 10 μM, digitonin permeabilization, 6 hrs, FIG. 14
Description: To determine the responsiveness of the five known natural human STING variants (referred to as WT, REF, HAQ, AQ and Q) to the native and derivative molecules, a panel of human embryonic kidney (HEK) 293T cell lines that expressed the human STING alleles was generated. […] MSCV2.2 plasmids encoding hSTING(REF)-GFP, hSTING(WT)-GFP, hSTING(HAQ)-GFP, hSTING(Q)-GFP and mSTING(WT)-GFP were obtained from the Vance Laboratory at UC Berkeley. hSTING(AQ)-GFP was derived from hSTING(Q)-GFP using a QuickChange Site-Directed Mutagenesis kit (Stratagene). The sequence of the hSTING(REF) allele is also known as the Barber allele (Ishikawa, H., and Barber, G. N. (2008). Nature 455, 674-678), and has the NCBI Reference Sequence NP_938023.1. The amino acid difference between hSTING(REF) and the other WT, HAQ, AQ and Q human STING alleles are shown in FIG. 13, which is adapted from Yi et al., Plos One 8: e77846 (2013). Stable HEK 293T-derived cell lines expressing each of the individual human STING alleles were generated by FACS sorting of GFP positive cells using a Mo Flo cell sorter at the Cancer Research Laboratory Flow Cytometry Facility at UC Berkeley. 1×10^4 HEK293T STING cells were seeded in 96-well plates and transiently transfected (using Lipofectamine 2000) with 50 ng of a human IFN-β reporter plasmid (pLuc-IFN-β) expressing the human IFN-β promoter upstream of a luciferase reporter and 10 ng of TK-renilla for normalization. 24 hours later, cells were stimulated with native and synthetic CDN derivative molecules using digitonin permeabalization to ensure uniform uptake. Each STING cell line was stimulated with 10 μM of cyclic [G(3′,5′)pA(3′,5′)p] (cGAMP), cyclic [G(2′,5′)pA(3′,5′)p] (ML-cGAMP), Rp, Rp dithio cyclic [G(2′,5′)pA(3′,5′)p] […] (CDA), Rp, Rp dithio cyclic [A(3′,5′)pA(3′,5′)p] (RR-CDA), cyclic [A(2′,5′)pA(3′,5′)p] (ML-CDA), Rp, Rp dithio cyclic [A(2′,5′)pA(3′,5′)p] (ML RR-CDA), cyclic [G(3′,5′)pG(3′,5′)p] (CDG), Rp, Rp dithio cyclic [G(3′,5′)pG(3′,5′)p] (RR-CDG), cyclic [G(2′,5′)pG(3′,5′)p] (ML-CDG) or Rp, Rp dithio cyclic [G(2′,5′)pG(3′,5′)p] (ML RR-CDG) in 25 ul digitonin buffer (50 mM HEPES, 100 mM KCL, 3 mM MgCl2, 0.1 mM DTT, 85 mM Sucrose, 0.2% BSA, 1 mM ATP, 0.1 mM GTP, 10 ug/ml digitonin). After 20 min, the stimulation mixtures were removed and 200 ul of standard RPMI media was added. After stimulation for 6 hrs, cell lysates were prepared and reporter gene activity measured using the Dual Luciferase Assay System (Promega) on a Spectramax M3 luminometer.

hSTING (REF) = target: T2, hSTING (REF) (Homo sapiens, UniProt Q86WV6); assay: IFNβ-LUC reporter in HEK293T cells expressing hSTING (REF); assay type: cell-based; details: 10 μM, digitonin permeabilization, 6 hrs, FIG. 14
T2 construct: GFP; expressed in transfected cells; plasmid from the Vance Laboratory, UC Berkeley
T2 sequence (Q86WV6 whole entry): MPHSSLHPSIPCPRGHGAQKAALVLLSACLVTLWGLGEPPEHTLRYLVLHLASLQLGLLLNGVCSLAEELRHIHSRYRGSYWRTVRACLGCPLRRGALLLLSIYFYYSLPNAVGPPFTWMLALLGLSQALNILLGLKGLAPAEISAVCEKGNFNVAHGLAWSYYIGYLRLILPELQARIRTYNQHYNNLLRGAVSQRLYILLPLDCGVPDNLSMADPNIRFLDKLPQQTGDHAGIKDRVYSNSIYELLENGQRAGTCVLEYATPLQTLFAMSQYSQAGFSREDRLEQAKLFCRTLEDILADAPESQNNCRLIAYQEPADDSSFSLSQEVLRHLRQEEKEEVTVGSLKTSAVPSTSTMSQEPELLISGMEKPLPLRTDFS
Procedure: MSCV2.2 plasmids encoding hSTING(REF)-GFP, hSTING(WT)-GFP, hSTING(HAQ)-GFP, hSTING(Q)-GFP and mSTING(WT)-GFP were obtained from the Vance Laboratory at UC Berkeley. hSTING(AQ)-GFP was derived from hSTING(Q)-GFP using a QuickChange Site-Directed Mutagenesis kit (Stratagene). […] 1×10^4 HEK293T STING cells were seeded in 96-well plates and transiently transfected (using Lipofectamine 2000) with 50 ng of a human IFN-β reporter plasmid (pLuc-IFN-β) expressing the human IFN-β promoter upstream of a luciferase reporter and 10 ng of TK-renilla for normalization. 24 hours later, cells were stimulated with native and synthetic CDN derivative molecules using digitonin permeabalization to ensure uniform uptake. Each STING cell line was stimulated with 10 μM of cyclic [G(3′,5′)pA(3′,5′)p] (cGAMP), cyclic [G(2′,5′)pA(3′,5′)p] […] (RR-CDA), cyclic [A(2′,5′)pA(3′,5′)p] […] (RR-CDG), cyclic [G(2′,5′)pG(3′,5′)p] […] (ML RR-CDG) in 25 ul digitonin buffer (50 mM HEPES, 100 mM KCL, 3 mM MgCl2, 0.1 mM DTT, 85 mM Sucrose, 0.2% BSA, 1 mM ATP, 0.1 mM GTP, 10 ug/ml digitonin). After 20 min, the stimulation mixtures were removed and 200 ul of standard RPMI media was added. After stimulation for 6 hrs, cell lysates were prepared and reporter gene activity measured using the Dual Luciferase Assay System (Promega) on a Spectramax M3 luminometer.

THP1-Blue™ ISG cells = assay: Type I interferon induction in THP1-Blue ISG reporter cells (QUANTI-Blue, A655); assay type: cell-based, human; details: 50 μM, mock treated, 16 hr incubation, FIG. 12
Procedure: To determine the relative level of type I interferon induced in human cells by each of the native and derivative molecules as a signature of adjuvant potency, 4×10^5 THP1-Blue™ ISG cells (a human monocyte cell line transfected with an IRF-inducible secreted embryonic alkaline phosphatase reporter gene (Invivogen) which express alkaline phosphatase under the control of a promoter comprised of five IFN-stimulated response elements) were incubated with 100 μM of cyclic [G(3′,5′)pG(3′,5′)p] (CDG), cyclic [G(2′,5′)pG(3′,5′)p] (mixed linkage, or ML-CDG), or HBSS for 30 minutes at 37° C. with 5% CO2. After 30 minutes, cells were washed and plated in 96-well dish in RPMI media containing 10% FBS, and incubated at 37° C. with 5% CO2. Cell culture supernatants from each sample were collected after overnight incubation, and 20 μL of the cell culture supernatants was added to 180 μL QUANTI-Blue reagent (Invivogen) and incubated for 45 minutes to evaluate type I interferon protein levels. Readings at Absorbance 655 nm were taken every 3 minutes using a Versa Max kinetic spectrophotometer (Molecular Diagnostics).
[…]. After 30 minutes, cells were washed and plated in 96-well dish in RPMI media containing 10% FBS, and incubated at 37° C. with 5% CO2. Cell culture supernatants from each sample were collected after overnight incubation, and 20 μL of the cell culture supernatants was added to 180 μL QUANTI-Blue reagent (Invivogen) and incubated for 45 minutes. Readings at Absorbance 655 nm were taken at 15 minutes using a SpectraMax spectrophotometer (Molecular Diagnostics).
The induction of type I interferon in human cells was measured to evaluate the potency of untreated and phosphodiesterase-treated oxo, Rp monothio and Rp, Rp dithio derivatives. […]. After 30 minutes, cells were washed and plated in a 96-well dish in RPMI media containing 10% FBS, and incubated at 37° C. with 5% CO2. Cell culture supernatants from each sample were collected after 16 hr incubation, and 20 μL of the cell culture supernatants was added to 180 μL QUANTI-Blue reagent (Invivogen) and incubated for 25 minutes to evaluate type I interferon protein levels. Readings at Absorbance 655 nm were measured with a Versa Max spectrophotometer (Molecular Diagnostics).

Compound	type I interferon inducing activity after SVPD treatment [1]	type I interferon inducing activity after NP1 treatment (Nuclease P1 (NP1))	IFNβ reporter response of hSTING (Q) (hSTING (Q))	IFNβ reporter response of hSTING (REF) (hSTING (REF))	induction of type I interferon, untreated compounds (THP1-Blue™ ISG cells)
Nc1ncnc2c1ncn2C1OC2COP(=O)(O)OC3C(O)C(COP(=O)(S)OC2C1O)OC3n1cnc2c(N)ncnc21 (stereo not drawn) [ML R-CDA, monothio-cyclic-[A(2′,5′)pA(3′,5′)Rp]]	susceptible to SVPD treatment	retained activity after NP1 digestion	–	–	–
Nc1ncnc2c1ncn2[C@@H]1O[C@@H]2COP(=O)(O)O[C@H]3[C@@H](O)[C@H](n4cnc5c(N)ncnc54)O[C@@H]3COP(=O)(O)O[C@H]2[C@H]1O [CDA, cyclic[A(3′,5′)pA(3′,5′)p], reference compound]	lost activity	lost activity	responded poorly	responded poorly	–
Nc1nc2c(ncn2[C@@H]2O[C@@H]3COP(=O)(S)O[C@H]4[C@@H](O)[C@H](n5cnc6c(N)ncnc65)O[C@@H]4CO[P@@](=O)(S)O[C@@H]2[C@@H]3O)c(=O)[nH]1 (stereo partly drawn) [ML RR-cGAMP, dithio-[RP,RP]-cyclic-[G(2′,5′)pA(3′,5′)p]]	–	–	responsive to stimulation	–	–
Nc1ncnc2c1ncn2[C@@H]1O[C@@H]2CO[P@@](O)(=S)O[C@H]3[C@@H](O)[C@H](n4cnc5c(N)ncnc54)O[C@@H]3CO[P@@](O)(=S)O[C@H]2[C@H]1O [RR-CDA, Rp, Rp dithio cyclic [A(3′,5′)pA(3′,5′)p], reference compound]	retain their potency	retain their potency	–	–	more potent inducers of type I interferon than the oxo
Nc1ncnc2c1ncn2C1OC2COP(=O)(O)OC3C(O)C(COP(=O)(O)OC2C1O)OC3n1cnc2c(N)ncnc21 (stereo not drawn) [ML-CDA, cyclic-[A(2′,5′)pA(3′,5′)p]]	lost activity	lost activity	–	–	–
cyclic [CDG, cyclic [G(3′,5′)pG(3′,5′)p], reference compound]	–	–	responded poorly	responded poorly	–
Nc1nc2c(ncn2[C@@H]2O[C@@H]3COP(=O)(O)O[C@H]4[C@@H](O)[C@H](n5cnc6c(N)ncnc65)O[C@@H]4COP(=O)(O)O[C@H]3[C@H]2O)c(=O)[nH]1 [cGAMP, cyclic [G(3′,5′)pA(3′,5′)p], reference compound]	–	–	responded poorly	–	–
